# Test results taken from ChEMBL document CHEMBL1143604, “Structure-activity relationship studies optimizing the antiproliferative activity of novel cyclic somatostatin analogues containing a restrained cyclic beta-amino acid” (J Med Chem, 2005).
# Test system: A-431
# Assay: Antiproliferative activity against human epidermiod carcinoma A431 cells
# Assay type: functional, cell-based
row,IC50,SMILES
1,32 µM,CCCC[C@@H]1NC(=O)[C@@H](Cc2c[nH]c3ccccc23)NC(=O)[C@H](Cc2ccc(O)cc2)NC(=O)[C@@H]2CCCN2C(=O)[C@H](Cc2ccccc2)NC(=O)[C@H]([C@@H](C)O)NC1=O
2,26 µM,CCCC[C@@H]1NC(=O)[C@H](Cc2c[nH]c3ccccc23)NC(=O)[C@@H](Cc2ccc(O)cc2)NC(=O)[C@@H]2CCCN2C(=O)[C@H](Cc2ccccc2)NC(=O)[C@@H]([C@@H](C)OC(c2ccccc2)(c2ccccc2)c2ccccc2)NC1=O
3,> 50 µM,"C[C@@H](O)[C@@H]1NC(=O)C(CCCCN)NC(=O)[C@@H](Cc2c[nH]c3ccccc23)NC(=O)C(Cc2ccccc2)NC(=O)[C@@H]2CCCN2C(=O)C(Cc2ccccc2)NC1=O (single isomer, unassigned)"

# More lines, now with the values behind:
row,SMILES,IC50
1,CCCC[C@@H]1NC(=O)[C@@H](Cc2c[nH]c3ccccc23)NC(=O)[C@H](Cc2ccc(O)cc2)NC(=O)[C@H]2C[C@@H](C)C=C(C)[C@H]2NC(=O)[C@H]([C@@H](C)OC(c2ccccc2)(c2ccccc2)c2ccccc2)NC1=O,5 µM
2,CCCC[C@@H]1NC(=O)[C@@H](Cc2c[nH]c3ccccc23)NC(=O)[C@H](Cc2ccc(O)cc2)NC(=O)[C@H]2C[C@@H](C)C=C(C)[C@H]2NC(=O)[C@H]([C@@H](C)O)NC1=O,> 100 µM
3,CCCC[C@@H]1NC(=O)[C@@H](Cc2c[nH]c3ccccc23)NC(=O)[C@@H](Cc2ccc(O)cc2)NC(=O)[C@H]2C[C@@H](C)C=C(C)[C@H]2NC(=O)[C@H]([C@@H](C)OC(c2ccccc2)(c2ccccc2)c2ccccc2)NC1=O,6 µM
